The text below walks through data of publication PMC10587871 (Bioconjugate Chemistry, 2023).

Each structure is given as a SMILES string. Where a SMILES comes first, the peptide text is derived from it. The star is where a group is joined. 5FAM = O=C1OC2(c3ccc(O)cc3Oc3cc(O)ccc32)c2ccc(C(=O)*)cc21

For this data set, the system named is MM6 cell line. To be noted: 5(6)-FAM-labeled peptides 10 μM, MM6 cells, 2 h, flow cytometry FITC channel, trypan blue quenching. (In general: In flow cytometry, cells or beads pass a laser one at a time.)
Consider `CC[C@H](C)[C@H](NC(=O)[C@H](CCCCN)NC(=O)[C@H](CCC(=O)O)NC(=O)[C@H](Cc1ccc(O)cc1)NC(=O)[C@@H]1CCCN1C(=O)[C@H](CC(=O)O)NC(=O)c1ccc2c(c1)C(=O)OC21c2ccc(O)cc2Oc2cc(O)ccc21)C(=O)NCC(=O)N[C@@H](C)C(=O)N[C@@H](CCC(=O)O)C(=O)N[C@@H](CC(C)C)C(=O)N[C@H](C(=O)N[C@@H](CCCCN)C(N)=O)C(C)C` [Grol2 (63–78)], for which the “Internalization (cellular uptake) profile” value (“Internalization” below) is listed as “highest cell internalization among MHC II binding epitopes”. Turning to `C[C@H](NC(=O)[C@H](C)NC(=O)[C@H](CCCCN)NC(=O)[C@H](CCCCN)NC(=O)[C@H](C)NC(=O)[C@@H]1CCCN1C(=O)[C@H](C)NC(=O)[C@H](CCCCN)NC(=O)c1ccc2c(c1)C(=O)OC21c2ccc(O)cc2Oc2cc(O)ccc21)C(=O)N[C@@H](C)C(=O)N[C@@H](CCCCN)C(N)=O` [HBHA (185–194)] (5FAM-KAPAKKAAAK-NH2), the “Internalization” value was “significant cellular uptake”. Take `CC[C@H](C)[C@H](NC(=O)[C@H](C)NC(=O)[C@H](CCC(N)=O)NC(=O)[C@H](Cc1c[nH]c2ccccc12)NC(=O)[C@H](CC(C)C)NC(=O)[C@H](CCCCN)NC(=O)[C@H](CCCCN)NC(=O)[C@@H](NC(=O)[C@H](Cc1ccc(O)cc1)NC(=O)[C@H](C)NC(=O)c1ccc2c(c1)C(=O)OC21c2ccc(O)cc2Oc2cc(O)ccc21)[C@@H](C)O)C(=O)N[C@@H](CCCNC(=N)N)C(=O)N[C@@H](C)C(=O)N[C@@H](CCC(N)=O)C(=O)N[C@@H](CC(=O)O)C(=O)N[C@H](C(N)=O)C(C)C` [RpfA (377–391)] (5FAM-AYTKKLWQAIRAQDV-NH2): the “Internalization” value is on record as “weak internalization profile”. As for `CC(C)[C@H](NC(=O)[C@H](C)NC(=O)[C@@H](NC(=O)CNC(=O)[C@H](C)NC(=O)c1ccc2c(c1)C(=O)OC21c2ccc(O)cc2Oc2cc(O)ccc21)[C@@H](C)O)C(=O)N[C@@H](CCC(N)=O)C(=O)N[C@@H](CC(=O)O)C(=O)N[C@@H](CO)C(=O)N[C@@H](CCCNC(=N)N)C(=O)N[C@@H](CO)C(=O)N[C@@H](Cc1c[nH]cn1)C(=O)N[C@H](C(=O)N[C@@H](Cc1ccc(O)cc1)C(=O)N[C@@H](C)C(=O)N[C@@H](Cc1c[nH]cn1)C(N)=O)C(C)C` [Rv1733c (63–77)] (5FAM-AGTAVQDSRSHVYAH-NH2), the “Internalization” value was “weak internalization profile”.
